Measured values reported in article PMC6177617 (British Journal of Pharmacology, 2018).
Like-named read-outs stand apart in the source and are kept apart here.

Molecular target: dopamine D2 receptor (Homo sapiens, UniProt P14416)
Assay type: binding
[1] = kPCA, room temperature, PPHT tracer, N = 2, n = 2

Sequence of dopamine D2 receptor (P14416 whole entry): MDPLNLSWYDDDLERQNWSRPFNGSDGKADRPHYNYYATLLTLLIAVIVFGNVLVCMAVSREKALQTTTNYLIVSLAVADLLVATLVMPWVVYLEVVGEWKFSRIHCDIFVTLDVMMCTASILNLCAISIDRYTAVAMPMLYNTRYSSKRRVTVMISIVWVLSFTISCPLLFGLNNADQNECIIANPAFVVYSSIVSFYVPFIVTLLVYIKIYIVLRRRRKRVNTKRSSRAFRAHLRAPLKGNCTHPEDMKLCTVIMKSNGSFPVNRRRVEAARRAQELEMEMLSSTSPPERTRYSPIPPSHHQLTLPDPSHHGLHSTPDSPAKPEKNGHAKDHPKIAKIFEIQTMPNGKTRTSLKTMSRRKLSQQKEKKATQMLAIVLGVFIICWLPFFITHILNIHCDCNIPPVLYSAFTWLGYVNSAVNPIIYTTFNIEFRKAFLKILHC

| SMILES | kon [1/(M*s)] [1] | kon [1/(M*s)] |
| --- | --- | --- |
| Fc1ccc(CN2CCC(Nc3ccc(C(F)(F)F)nn3)CC2)cc1F [JNJ‐37822681] | 7.33E + 05 1/(M*s) | – |
| O=C(CCCN1CCC(O)(c2ccc(Br)cc2)CC1)c1ccc(F)cc1 [Bromperidol] | – | 2.26E + 06 1/(M*s) |
| FC(F)(F)c1nnc(N2CCNCC2)cc1-c1ccccc1 [JNJ‐39269646] | 4.53E + 06 1/(M*s) | – |
